Series [1] in a line: in vivo. Conditions: mouse, serum, sc.
Protocol: according to standard procedures. From 20 ml antiserum, 1.5 mg purified antibody were
isolated and stored in aliquots at -20 °C in PBS + 0.01% thimerosal, 0.1% BSA diluted 1:1 with
concentrations between 0.5 nM and 20 nM and s amples were also spotted in triplicates. After
drying, the membrane was soaked in TBST (150 mM NaCl, 50 mM Tris-HCl, pH 7.4, 0.05%
tween), blocked for 1 h at RT with 5% nonfat dry milk in TBST. The membrane was washed 3
1:2000 in TBST, washed 3 times, incubated 1 h at RT with anti-rabbit-HRP (GE Healthcare)
diluted 1:5,000 in 5% nonf at dry milk in TBST. The membrane was f inally washed 3 times in
TBST and then incubated with ECL prime substrate (GE Healthcare). Chemiluminescent
signals were recorded in an LAS-4000 mini Image reader (Fuji). Spot intensities were
For the statistical analysis, mean (M) and standard deviation (SD) were calculated. T he
statistical analysis was p erf ormed with the GraphPad Prism Software, Version 5.0 (Graph Pad,
Series [2] deals with Balb/c mice. The experiment in a line: Dose escalation study and acute toxicity. The series is classed as in vivo, Mouse. The procedure: Dose escalation study and evaluation of acute toxicity in mice
T o study whether a repeated subcutaneous dosing of Y9 has any local or systemic toxic effects on animals, the following dose escalation study was performed. Groups of 5 Balb/c mice were inoculated subcutaneously with 100 µl of 0.9 % saline (NaCl) solution containing either 200 nmol, 400 nmol or 800 nmol Y9 . Two control groups (a total of 10 mice) received only 0.9% saline. T he injections were repeated every other day f or a total of seven injections. B ody weig ht and general health observations were evaluated on a daily basis. At day 4 after the last inoculation of the solutions blood was collected under isof lurane anesthesia f or hematology and f or serum analysis by retro- orbital puncture. Organs (sk in, brain, heart, k idney, liver, lung, ovaries/testis, spleen, local and distal lymph nodes, mesentery, small intestine, stomach, pancreas) were isolated af ter euthanasia with an isof lurane overdose for histopathology and body weight-normalized organ weights (brain, kidney, heart, liver, spleen) were calculated.
W eights of the carcass, brain, heart, kidney, liver and spleen were determined and body weight-normalized organ weight in % was calculated as follows:
Body weight-normalized organ weight [%] = organ weight [g] x 100 […]
The following serum parameters were analyzed with the Vitros 250 (Johnson&Johnson) machine measuring parameters at 25°C: […] (CK), alk aline Phosphatase (ALP), Amylase, GOT/AST, GPT/ALT, GGT, LDH, Lipase, total protein (TP), Glucose (GLU), Cholesterol (CHOL), Triglyceride (TRIG), blood urea nitrogen (BUN), Creatinine (CREA), total bilirubin (TBIL), inorganic Phosphorus (PHOS), Sodium (Na), Potassium (K), Calcium (Ca), […]
(MCHC), banded neutrophils, segmented neutrophils, lymphocytes (Lymphs), monocytes (Monos), eosinophils (EOS), basophils (BASO). The organ sections were histopathological […]
pathological abnormalities f ound. […]
glycerin (f inal concentration 227 µg/ml). […]
on a nitrocellulose membrane. For calibration, control serum was spiked with Y9 in […]
The membrane was washed 3
The membrane was f inally washed 3 times in […]
quantitated using Image J software. The calibration samples were used to prepare a linear […]
values of < 0.05 were considered signif icant.

[3] abbreviates: Balb/c mice, s.c. 200, 400 or 800 nmol every two days for 14 days.
The mark [4] stands for this setting: highest dose 800 nmol (printed 800 nm), repeated s.c., day 4 after last dose.

Positions of bridges follow the written chain, without caps; N, C: chain ends. Non-standard residues stand in square brackets, D forms with d. Residues, ends and D or L forms follow the SMILES beside them. Chains are numbered I, II in the order given. *: point of attachment. PEG28 = NCCOCCOCCOCCOCCOCCOCCOCCOCCOCCOCCOCCOCCOCCOCCOCCOCCOCCOCCOCCOCCOCCOCCOCCOCCOCCOCCOCCOCCC(=O)O; Tyr(3-NO2) = N[C@@H](Cc1ccc(O)c([N+](=O)[O-])c1)C(=O)O; Hyp = O=C(O)[C@@H]1C[C@@H](O)CN1; For = O=C*

For orientation: half-life means the time needed for the level to fall by half in the phase considered. With `CC[C@H](C)[C@H](NC(=O)[C@H](CCSC)NC=O)C(=O)N[C@@H](Cc1ccccc1)C(=O)N[C@@H](CC(C)C)C(=O)NCC(=O)NCC(=O)N[C@@H](CCCCNC(=O)CCOCCOCCOCCOCCOCCOCCOCCOCCOCCOCCOCCOCCOCCOCCOCCOCCOCCOCCOCCOCCOCCOCCOCCOCCOCCOCCOCCOCCNC(=O)[C@H]1CSSC[C@@H](N)C(=O)N[C@H](CC(=O)O)C(=O)NCC(=O)N[C@@H](Cc2ccc(O)c([N+](=O)[O-])c2)C(=O)NCC(=O)N2C[C@H](O)C[C@H]2C(=O)N[C@@H](CC(N)=O)C(=O)N1)C(=O)N[C@@H](CCCCNC(=O)CCOCCOCCOCCOCCOCCOCCOCCOCCOCCOCCOCCOCCOCCOCCOCCOCCOCCOCCOCCOCCOCCOCCOCCOCCOCCOCCOCCOCCNC(=O)[C@H]1CSSC[C@@H](N)C(=O)N[C@H](CC(=O)O)C(=O)NCC(=O)N[C@@H](Cc2ccc(O)c([N+](=O)[O-])c2)C(=O)NCC(=O)N2C[C@H](O)C[C@H]2C(=O)N[C@@H](CC(N)=O)C(=O)N1)C(=O)O` [Y9] (I: H-[dC][dD]G[Tyr(3-NO2)]G[Hyp]N[dC][PEG28] / II: H-[dC][dD]G[Tyr(3-NO2)]G[Hyp]N[dC][PEG28] / III: For-MIFLGGKK-OH; disulfide I:1-I:8, II:1-II:8; amide I:C-III:7, II:C-III:8), the half-life in series [1] is ~2 h. For the same compound, in series [1] (200 nmol), the level at time molar at 1 h amounted to 350 nM and the level at time molar at 7 h amounted to 75 nM. Moreover, the “hematological analysis including differential hemogram of white blood cells” value in series [2] (Balb/c mice, repeated s.c. dosing) is given as “no significant changes”. In series [2] (Balb/c mice, repeated s.c. dosing, no histopathological abnormalities or steatosis in liver), the relative organ weights entry is on record as “slightly enlarged liver weight”. Also, the “histopathological effects in organs” value in series [2] (Balb/c mice, s.c. 200 nmol every two days for 14 days, liver, kidney, pancreas, spleen, heart, lung, ovaries, brain, stomach, intestine, mesentery) was “No histopathological effects”. The “histopathological effects in organs” value in series [2] (Balb/c mice, s.c. 400 nmol every two days for 14 days, same organs) is listed as “No histopathological effects”. Besides, the kidney histopathology result in series [2] (Balb/c mice, s.c. 800 nmol every two days for 14 days) was “moderate degenerative changes of the kidney”. In addition, in series [2] (setting [3]), the draining lymph nodes entry is “mild but significant dose-dependent immune infiltration and lymphoid hyperplasia”; the “local effects at the injection site” value is “increased neutrophil and monocyte infiltrates at the injection site”. In addition, in series [2] (setting [4]), the “amylase level in serum” value was “significantly increased”, the “blood urea nitrogen (BUN) level in serum” value is “significantly increased”, the “cholesterol level in serum” value is “significantly increased” and the “creatinine (CREA) level in serum” value was “slightly but significant increased”. Further, in series [2] (setting [4]), the “lipase level in serum” value is listed as “slightly but significant increased” and the “triglycerides level in serum” value is given as “significantly increased”.

Values taken from PMC5730604.
